20 compounds from patent US20110028405A1, “SULFAMIDES AS ZAP-70 INHIBITORS” (priority 2007, published 2011) can be followed below.

The subject of one assay is Jurkat cells. As to the kind of experiment: Calcium release assay (Fluo-4, flow cytometry, anti-CD3 stimulation). In kind it is cell-based. Conditions: Homo sapiens; intracellular Ca2+ release in Jurkat cells after anti-CD3 activation. The method, then:
Compounds of the present invention were tested in a Calcium release assay as described below.
The development of fluorescent probes makes it possible to measure the concentration of intracellular free Calcium ions in single living cells. Cells are first loaded with a cell-permeable Ca^2+-sensitive dye, then the test compound is added. Finally, cells are activated through the T cell receptor with an anti-CD3 antibody shortly before data acquisition on the flow cytometer. The release of Ca^2+ is measured as a function of time after cell stimulation. This protocol describes the flow cytometry method using the Fluo-3 and Fluo-4 dyes (Minta et al., 1989, J. Biol. Chem. 264(14):8171-8178) to measure the intracellular Ca^2+ concentration in Jurkat cells (see also June et al., 1997, Measurement of intracellular calcium ions by flow cytometry. In: Current Protocols in Cytometry (1997) Unit 9.8.1-9.8.19, John Wiley & Sons, Inc.).
1) Prepare a work plan indicating the number of samples to be analyzed including controls. 2) Cell harvest: Centrifuge 50 to 100 ml of a Jurkat cell culture for 5 minutes at 1100 rpm. Discard the supernatant, pool the resuspended cell pellets in a single 50 ml Falcon tube, and fill up to 50 ml with PBS-CaCl2 (without FCS). Centrifuge again sample again. 3) Resuspend cell pellet with PBS-CaCl2 (without FCS) to achieve a concentration not lower than 10×10^6 cells/ml. Prepare an adequate dilution to evaluate the cell concentration and count the cells. 4) Separate the volume of cells needed to be loaded (for example […] for 20 samples) in a 50 ml Falcon tube. Fill up with PBS-CaCl2 to 900 μl for 107 cells. 5) Prepare in the dark a 1:1 mix of FLUO-4 (1 mM)+Pluronic F-127 (20%). 5 μl of Fluo-4 are needed per 107 cells. 6) Prepare a 1/10 dilution of this mix with PBS-CaCl2 (in the dark; for example 5 μl Fluo-4+5 μl F-127 completed to 100 μl). 7) Add the dye solution to the cells. […] 8) Incubate the sample for 30 minutes in a cell incubator (37° C., 5% CO2). Mix from time to time. 9) During this time prepare the adequate test compound dilution in PBS-CaCl2 (with 10% FCS). The solution should be 10 times more concentrated than the desired final concentration. Vortex each dilution. Prepare also the antibody dilutions: anti-CD3 (1/200) and GAM (1/25). 10) Label FACS tubes and distribute in the corresponding tube 30 μl of the compound dilution or only buffer for the control tubes. 11) After 30 minutes of incubation wash the cells twice in PBS-CaCl2 (with 10% FCS). During the washing steps make sure that the flow cytometer is already “ON” in order to warm the laser. 12) Resuspend the cell pellet in PBS-CaCl2 (with 10% FCS) at a concentration of 1.5×10^6 cells/ml. 13) Distribute 300 μl of cell suspension into the FACS tubes and mix gently. The compound incubation is starting. Keep samples at room temperature in the dark. 14) Open the settings of the cytometer. It is advised to have a template ready which is used for all measurements. Settings of the machine should also be the same from one experiment to the other which permits to evaluate the reproducibility of the cell preparation. 15) In Setup modus control your cell preparation on the cytometer. Cells should fit in the pre-defined gates. 16) During the compound incubation time, check also that cells are responding to the anti-CD3 activation as expected. Set a timer at 8 sec. Add 6 μl of anti-CD3 dilution (0.2 μg/ml final) and mix gently. Add 1 μl of GAM dilution (0.75 μg/ml final) and mix gently. Incubate the samples in water bath at 37° C. while starting timer. After 8 seconds of incubation, acquire data at medium speed for 200 seconds. A clear increase of fluorescence should appear after 1 minute. 17) Make sure that the cells rest and equilibrate at room temperature 15 minutes before FACS data acquisition 18) Data acquisition: Samples to be compared should be measured consecutively. 19) For a better reproducibility, make sure that data for the loaded cells are acquired within 2 hours. […]

A further assay addresses T1, ZAP-70 (Homo sapiens, UniProt P43403).
T1 construct: endogenous in cells; host or cells: cell lysate
T1 sequence (P43403 1-619): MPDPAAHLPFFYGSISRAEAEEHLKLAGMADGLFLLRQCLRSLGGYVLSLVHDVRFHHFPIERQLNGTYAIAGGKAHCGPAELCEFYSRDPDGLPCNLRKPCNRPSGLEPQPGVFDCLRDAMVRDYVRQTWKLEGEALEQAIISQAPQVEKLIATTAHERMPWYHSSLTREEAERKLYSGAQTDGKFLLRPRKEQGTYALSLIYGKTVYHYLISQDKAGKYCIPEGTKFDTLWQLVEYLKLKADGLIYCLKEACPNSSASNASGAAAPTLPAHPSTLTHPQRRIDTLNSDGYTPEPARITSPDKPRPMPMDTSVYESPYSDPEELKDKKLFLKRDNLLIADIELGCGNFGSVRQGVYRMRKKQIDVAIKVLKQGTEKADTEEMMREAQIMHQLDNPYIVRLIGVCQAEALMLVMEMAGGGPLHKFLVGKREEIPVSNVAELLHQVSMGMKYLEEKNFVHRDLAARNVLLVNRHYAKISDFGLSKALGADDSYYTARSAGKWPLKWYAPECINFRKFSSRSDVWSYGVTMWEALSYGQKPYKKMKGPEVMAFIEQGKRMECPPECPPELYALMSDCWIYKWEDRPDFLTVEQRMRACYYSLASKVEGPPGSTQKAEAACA
Put plainly: ZAP-70 kinobeads assay. Format: binding. Conditions: cell lysate, dot blot detection. The method, then:
The compounds of the present invention as described in the previous examples can be tested in the ZAP-70 kinobeads assay as described (EP-A 1862802 and WO-A 2007/137867). Briefly, test compounds (at various concentrations) and the affinity matrix with the immobilized aminopyrido-pyrimidine ligand 24 are added to cell lysate aliquots and allowed to bind to the proteins in the lysate sample. After the incubation time the beads with captured proteins are separated from the lysate. Bound proteins are then eluted and the presence ZAP-70 is detected and quantified using a specific antibody in a dot blot procedure and the Odyssey infrared detection system.

In the case of `COc1cc(Nc2ncc(F)c(Nc3cc(F)ccc3NS(N)(=O)=O)n2)cc(OC)c1OC` [Example 37, N-(4-fluoro-2-(5-fluoro-2-(3,4,5-trimethoxyphenylamino)pyrimidin-4-ylamino)phenyl)sulfamide], the IC50 in the assay with Jurkat cells and on ZAP-70 was less than 1 µM in each case. With `COc1ccc(Nc2ncc(Br)c(Nc3ccccc3NS(N)(=O)=O)n2)cc1` [Example 26, N-(2-(5-bromo-2-(4-methoxyamino)pyrimidin-4-ylamino)phenyl)sulfamide], the values for the IC50 in the assay with Jurkat cells and at ZAP-70 were less than 0.1 µM and less than 1 µM, respectively. Taken in the same sequence, the figures for `COc1cc(Nc2ncc(F)c(Nc3ccccc3NS(N)(=O)=O)n2)cc(OC)c1OC` [Example 10, N-(2-(5-fluoro-2-(3,4,5-trimethoxyphenylamino)pyrimidin-4-ylamino)phenyl)sulfamide] were less than 0.1 µM and less than 0.1 µM.

`COc1cc(Nc2ncc(F)c(Nc3ccccc3NS(=O)(=O)NCC3CC3)n2)cc(OC)c1OC` [Example 12, N-(2-(5-fluoro-2-(3,4,5-trimethoxyphenylamino)pyrimidin-4-ylamino)phenyl)-N′-cyclopropylmethylsulfamide]: the values for the IC50 with Jurkat cells and at ZAP-70 were less than 1 µM and less than 50 µM, respectively. On the same counts, the results for `NS(=O)(=O)Nc1ccccc1Nc1nc(Nc2ccc3[nH]nnc3c2)ncc1Br` [Example 27, N-(2-(2 (1H-benzo[d][1,2,3]triazol-5-ylamino)-5-bromopyrimidin-4-ylamino)phenyl)sulfamide] are less than 1 µM and less than 1 µM. Take `CNS(=O)(=O)Nc1cccc(Nc2nc(Nc3cc(OC)c(OC)c(OC)c3)ncc2F)c1` [Example 9, N-(3-(5-fluoro-2-(3,4,5-trimethoxyphenylamino)pyrimidin-4-ylamino)phenyl)-N′-methylsulfamide]: the IC50 on ZAP-70 is less than 50 µM. As for `COc1cc(Nc2ncc(F)c(Nc3cccc(C)c3NS(N)(=O)=O)n2)cc(OC)c1OC` [Example 30, N-(2-(5-fluoro-2-(3,4,5-trimethoxyphenylamino)pyrimidin-4-ylamino)-6-methylphenyl)sulfamide], the IC50 in the assay with Jurkat cells and at ZAP-70 was less than 0.1 µM throughout.

Turning to `CCOc1cccc(Nc2nc(Nc3cc(OC)c(OC)c(OC)c3)ncc2F)c1NS(N)(=O)=O` [Example 33, N-(2-ethoxy-6-(5-fluoro-2-(3,4,5-trimethoxyphenylamino)pyrimidin-4-ylamino)phenyl)sulfamide], the IC50 in the assay with Jurkat cells was less than 1 µM; against ZAP-70, less than 0.1 µM. `COc1cc(Nc2ncc(F)c(Nc3ccccc3NS(=O)(=O)NCc3ccccc3)n2)cc(OC)c1OC` [Example 14, N-(2-(5-fluoro-2-(3,4,5-trimethoxyphenylamino)pyrimidin-4-ylamino)phenyl)-N′-benzylsulfamide] gave an IC50 against ZAP-70 of less than 50 µM. Regarding `COc1cc(Nc2nccc(Nc3ccccc3NS(N)(=O)=O)n2)cc(OC)c1OC` [Example 23, N-(2-(2-(3,4,5-trimethoxyphenylamino)pyrimidin-4-ylamino)phenyl)sulfamide], the IC50 with Jurkat cells and against ZAP-70 was less than 1 µM each time. On to `COc1cc(Nc2ncc(F)c(Nc3ccc(N4CCOCC4)cc3NS(N)(=O)=O)n2)cc(OC)c1OC` [Example 35, N-(2-(5-Fluoro-2-(3,4,5-trimethoxyphenylamino)pyrimidin-4-ylamino)-5-morpholinophenyl)sulfamide], for which the IC50 with Jurkat cells and at ZAP-70 was less than 1 µM throughout. With `COCCNS(=O)(=O)Nc1ccccc1Nc1nc(Nc2cc(OC)c(OC)c(OC)c2)ncc1F` [Example 15, N-(2-(5-fluoro-2-(3,4,5-trimethoxyphenylamino)pyrimidin-4-ylamino)phenyl)-N′-(2-methoxyethyl)sulfamide], the IC50 was less than 1 µM in the assay with Jurkat cells and less than 50 µM against ZAP-70.

As to `COc1ccc(NS(N)(=O)=O)c(Nc2nc(Nc3cc(OC)c(OC)c(OC)c3)ncc2F)c1` [Example 36, N-(2-(5-fluoro-2-(3,4,5-trimethoxyphenylamino)pyrimidin-4-ylamino)-4-methoxyphenyl)sulfamide], the IC50 in the assay on Jurkat cells is less than 1 µM; against ZAP-70, less than 50 µM.

With `COc1cc(Nc2ncc(F)c(Nc3cccc(NS(=O)(=O)NC(C)C)c3)n2)cc(OC)c1OC` [Example 6, N-(3-(5-fluoro-2-(3,4,5-trimethoxyphenylamino)pyrimidin-4-ylamino)phenyl)-N′-isopropylsulfamide], the IC50 against ZAP-70 was less than 50 µM. Still for that read-out and setting: the result for `COc1cc(Nc2ncc(F)c(Nc3cccc(NS(=O)(=O)NCC4CC4)c3)n2)cc(OC)c1OC` [Example 3, N-(3-(5-fluoro-2-(3,4,5-trimethoxyphenylamino)pyrimidin-4-ylamino)phenyl)-N′-cyclopropylmethylsulfamide] reads less than 50 µM; that for `COc1cc(Nc2ncc(F)c(Nc3ccccc3NS(=O)(=O)NC(C)C)n2)cc(OC)c1OC` [Example 13, N-(2-(5-fluoro-2-(3,4,5-trimethoxyphenylamino)pyrimidin-4-ylamino)phenyl)-N′-isopropylsulfamide], less than 50 µM. The same measure, in the same setting: the result for `CN(C)c1ccc(Nc2ncc(F)c(Nc3ccccc3NS(N)(=O)=O)n2)cc1` [Example 29, N-(2-(5-fluoro-2-(4-(dimethylamino)phenylamino)pyrimidin-4-ylamino)phenyl)sulfamide] reads less than 1 µM; that for `COc1cc(Nc2ncc(F)c(Nc3cccc(NS(=O)(=O)N(C)C)c3)n2)cc(OC)c1OC` [Example 2, N-(3-(5-fluoro-2-(3,4,5-trimethoxyphenylamino)pyrimidin-4-ylamino)phenyl)-N′,N′-dimethylsulfamide], less than 50 µM; that for `COCCNS(=O)(=O)Nc1cccc(Nc2nc(Nc3cc(OC)c(OC)c(OC)c3)ncc2F)c1` [Example 8, N-(3-(5-fluoro-2-(3,4,5-trimethoxyphenylamino)pyrimidin-4-ylamino)phenyl)-N′-(2-methoxyethyl)sulfamide], less than 50 µM. Turning to `COc1cc(Nc2ncc(F)c(Nc3ccc(NS(=O)(=O)N(C)C)cc3)n2)cc(OC)c1OC` [Example 16, N-(4-(5-fluoro-2-(3,4,5-trimethoxyphenylamino)pyrimidin-4-ylamino)phenyl)N′,N′-dimethylsulfamide], the IC50 in the assay on Jurkat cells was less than 1 µM.
